In patent US8937183B2, “Detection of hydrogen peroxide” (Promega Corporation, priority 2011, dated 2015):

Assay: Detection of hydrogen peroxide using coelenterazine borate with NanoLuc luciferase
Type: biochemical
Details: 12.5 uM compound, 40 ng/ml NanoLuc luciferase, 200 mM Tris-Cl pH 8.5 or pH 9.0, FIG. 3
Protocol: PBI 4759 (10 mM; final concentration 12.5 uM), various concentrations of hydrogen peroxide and 40 ng/ml NanoLuc™ luciferase enzyme (Promega Corporation) were added to wells of a 96-well assay plate containing 200 mM Tris-Cl either at pH 8.5 or pH 9.0. Luminescence was detected on a GloMax® luminometer.

Q: For CC1(C)OB(c2ccc(COc3c(Cc4ccco4)nc4c(Cc5ccccc5)nc(-c5ccccc5)cn34)cc2)OC1(C)C [PBI 4759, 8-benzyl-2-(furan-2-ylmethyl)-6-phenyl-3-((4-(4,4,5,5-tetramethyl-1,3,2-dioxaborolan-2-yl)benzyl)oxy)imidazo[1,2-a]pyrazine], which “detection of hydrogen peroxide by luminescence (in words)” value is on record?
A: allows sensitive detection of hydrogen peroxide
